± gives the expanded uncertainty stated by the source.
Key:
[1] = Crystal 2; Adiabatic calorimetry
[2] = Molar enthalpy of transition or fusion; settings: Crystal 2; DSC

## C1C2CC3CC1CC(C2)C3 [adamantane]
[1]
  Triple point temperature: 208 ± 0.18 K
[2]
  Molar enthalpy of transition or fusion: 3.09 ± 0.18 kJ/mol

Source: the NIST ThermoML archive (doi:10.1016/j.tca.2006.02.036)
